pKi: −log10 of the molar value. Where “and” joins values, the source holds several entries; their conditions need not be identical. Equal entries are not always repeated.
Biological target: T1, hENT1 (Homo sapiens, UniProt Q99808)
T1 construct: performed on erythrocyte cell membranes endogenously expressing the transporter; tissue Sanquin Bloedvoorziening, Amsterdam, The Netherlands; host or cells: erythrocyte membranes (endogenous expression)
T1 sequence (Q99808 1-456): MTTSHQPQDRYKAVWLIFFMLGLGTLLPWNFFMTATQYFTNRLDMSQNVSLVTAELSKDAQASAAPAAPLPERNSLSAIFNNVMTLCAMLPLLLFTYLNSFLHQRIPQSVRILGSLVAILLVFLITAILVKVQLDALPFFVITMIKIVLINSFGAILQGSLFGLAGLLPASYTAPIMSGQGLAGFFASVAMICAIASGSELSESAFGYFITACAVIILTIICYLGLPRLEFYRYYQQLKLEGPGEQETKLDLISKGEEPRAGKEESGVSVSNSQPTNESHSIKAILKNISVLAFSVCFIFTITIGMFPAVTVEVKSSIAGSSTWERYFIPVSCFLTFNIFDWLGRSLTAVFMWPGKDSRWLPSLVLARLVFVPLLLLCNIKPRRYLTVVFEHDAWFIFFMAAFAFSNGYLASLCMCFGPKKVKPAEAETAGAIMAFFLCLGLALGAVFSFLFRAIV
Experiment: [3H]NBTI displacement assay on erythrocyte membranes
Type: binding
Conditions: 1 µM inhibitor; [3H]NBTI displacement; mean (individual values) of two experiments
Method: Dilazep and ST7092 were obtained from ASTA-Werke AG (Bielefeld, Germany) and Chemie Linz AG (Linz, Austria), respectively. Radioligand displacement assays were performed as previously described. In brief, the experiments were performed on erythrocyte membranes (Sanquin Bloedvoorziening, Amsterdam, The Netherlands) using a single concentration of 1 µM or multiple concentrations (ranging from 10^–10 to 10^–6) of unlabeled inhibitors in the presence of 4 nM [^3H]NBTI at 10 °C for 1 h in assay buffer (50 mM Tris–HCl, pH 7.4, 0.1% w/v CHAPS). Non-specific binding (NSB) was assessed with 10 µM unlabeled NBTI. […] Subsequently, [^3H]NBTI was added to the preincubated and control samples (containing erythrocyte membranes, unlabeled inhibitor and radioligand) and both types of samples were incubated for another hour. Incubation was terminated by rapid vacuum filtration over Whatman™ UniFilter™ 96-well GF/C microplates using a FilterMate™ Universal Harvester (PerkinElmer, Groningen, The Netherlands). Subsequently, the plates were washed ten times with ice-cold wash buffer (50 mM Tris–HCl, pH 7.4). Thereafter, the filters were dried for 45 min at 55 °C and 25 µL of Microscint (PerkinElmer) was added per well. The filter-bound radioactivity was determined by scintillation spectrometry using a MicroBeta^2 2450 Microplate Counter (PerkinElmer).
For data analysis, dilazep and ST7092 were used as positive controls. All experimental data was analyzed using GraphPad Prism 10.0.2 software (GraphPad Software Inc., San Diego, CA, USA). [^3H]NBTI assays were baseline-corrected with NSB and normalized to this value (0%) and TB (100%). The radioligand displacement curves were fitted to a one-site binding model by nonlinear regression from which the pIC50 values were obtained. […] Data shown represent the mean ± SD of at least two or mean ± SEM of at least three individual experiments each performed in duplicate.
To determine the affinities of the non-covalent hENT1 inhibitors, a [^3H]NBTI displacement assay was performed on erythrocyte cell membranes endogenously expressing the transporter. All compounds were initially screened at a concentration of 1 µM to provide the percentage displacement. If more than 75% displacement was observed, compounds were subsequently characterized in full concentration-effect curves to determine their affinity.

Molecule | % displacement at 1 μM
3-(4-(3-((3-(methylamino)benzoyl)oxy)propyl)piperazin-1-yl)propyl 3,4,5-trimethoxybenzoate [Compound 6j] | 17 (16, 19) %
3-(4-(3-((4-(methylamino)benzoyl)oxy)propyl)piperazin-1-yl)propyl 3,4,5-trimethoxybenzoate [Compound 6i] | 6 (3, 9) %
COc1cc(C(=O)OCCCN2CCN(CCCOC(=O)c3ccccc3)CC2)cc(OC)c1OC [Compound 6a, 3-(4-(3-(benzoyloxy)propyl)piperazin-1-yl)propyl 3,4,5-trimethoxybenzoate] | -3 (0, -5) %
COc1cc(C(=O)OCCCN2CCN(CCCOC(=O)c3ccc(C)cc3)CC2)cc(OC)c1OC [Compound 6b, 3-(4-(3-((4-methylbenzoyl)oxy)propyl)piperazin-1-yl)propyl 3,4,5-trimethoxybenzoate] | 7 (10, 3) %
COc1cc(C(=O)OCCCN2CCN(CCCOC(=O)c3ccc(C)c(C)c3)CC2)cc(OC)c1OC [Compound 6c, 3-(4-(3-((3,4-dimethylbenzoyl)oxy)propyl)piperazin-1-yl)propyl 3,4,5-trimethoxybenzoate] | -7 (-7, -8) %
COc1cc(C(=O)OCCCN2CCN(CCCOC(=O)c3cc(C)cc(C)c3)CC2)cc(OC)c1OC [Compound 6d, 3-(4-(3-((3,5-dimethylbenzoyl)oxy)propyl)piperazin-1-yl)propyl 3,4,5-trimethoxybenzoate] | -4 (-4, -4) %
COc1cc(C(=O)OCCCN2CCN(CCCOC(=O)c3ccc(Cl)cc3)CC2)cc(OC)c1OC [Compound 6e, 3-(4-(3-((4-chlorobenzoyl)oxy)propyl)piperazin-1-yl)propyl 3,4,5-trimethoxybenzoate] | not able to inhibit [^3H]NBTI binding and 1 (3, -1) %
COc1cc(C(=O)OCCCN2CCN(CCCOC(=O)c3ccc(Cl)c(Cl)c3)CC2)cc(OC)c1OC [Compound 6f, 3-(4-(3-((3,4-dichlorobenzoyl)oxy)propyl)piperazin-1-yl)propyl 3,4,5-trimethoxybenzoate] | -4 (-7, -1) %
COc1cc(C(=O)OCCCN2CCN(CCCOC(=O)c3cccc(N(C)C)c3)CC2)cc(OC)c1OC [Compound 6g, 3-(4-(3-((3-(dimethylamino)benzoyl)oxy)propyl)piperazin-1-yl)propyl 3,4,5-trimethoxybenzoate] | 21 (21, 21) %
COc1cc(C(=O)OCCCN2CCN(CCCOC(=O)c3ccc(N(C)C)cc3)CC2)cc(OC)c1OC [Compound 6h, 3-(4-(3-((4-(dimethylamino)benzoyl)oxy)propyl)piperazin-1-yl)propyl 3,4,5-trimethoxybenzoate] | 19 (11, 26) %
COc1ccccc1C(=O)OCCCN1CCN(CCCOC(=O)c2cc(OC)c(OC)c(OC)c2)CC1 [Compound 6k, 3-(4-(3-((2-methoxybenzoyl)oxy)propyl)piperazin-1-yl)propyl 3,4,5-trimethoxybenzoate] | little to no displacement and 6 (5, 8) %
COc1cccc(C(=O)OCCCN2CCN(CCCOC(=O)c3cc(OC)c(OC)c(OC)c3)CC2)c1 [Compound 6l, 3-(4-(3-((3-methoxybenzoyl)oxy)propyl)piperazin-1-yl)propyl 3,4,5-trimethoxybenzoate] | little to no displacement and 9 (3, 16) %
COc1ccc(C(=O)OCCCN2CCN(CCCOC(=O)c3cc(OC)c(OC)c(OC)c3)CC2)cc1 [Compound 6m, 3-(4-(3-((4-methoxybenzoyl)oxy)propyl)piperazin-1-yl)propyl 3,4,5-trimethoxybenzoate] | around 30% and 36 (39, 33) %
COc1ccccc1C(=O)OCCCN1CCN(CCCOC(=O)c2ccccc2OC)CC1 [Compound 6p, piperazine-1,4-diylbis(propane-3,1-diyl) bis(2-methoxybenzoate)] | 7 (15, -1) %
COc1cccc(C(=O)OCCCN2CCN(CCCOC(=O)c3cccc(OC)c3)CC2)c1 [Compound 6q, piperazine-1,4-diylbis(propane-3,1-diyl) bis(3-methoxybenzoate)] | 8 (11, 4) %
COc1ccc(C(=O)OCCCN2CCN(CCCOC(=O)c3ccc(OC)cc3)CC2)cc1 [Compound 6r, piperazine-1,4-diylbis(propane-3,1-diyl) bis(4-methoxybenzoate)] | -8 (-5, -11) %
COc1ccc(C(=O)OCCCN2CCN(CCCOC(=O)c3ccc(OC)c(OC)c3)CC2)cc1OC [Compound 6s, piperazine-1,4-diylbis(propane-3,1-diyl) bis(3,4-dimethoxybenzoate)] | around 30% and 27 (33, 21) %
COc1cc(OC)cc(C(=O)OCCCN2CCN(CCCOC(=O)c3cc(OC)cc(OC)c3)CC2)c1 [Compound 6t, piperazine-1,4-diylbis(propane-3,1-diyl) bis(3,5-dimethoxybenzoate)] | little to no displacement and 8 (12, 4) %
COc1ccc(C(=O)OCCCN2CCN(CCCOC(=O)c3ccccc3OC)CC2)cc1OC [Compound 6u, 3-(4-(3-((2-methoxybenzoyl)oxy)propyl)piperazin-1-yl)propyl 3,4-dimethoxybenzoate] | little to no displacement and 12 (16, 9) %
COc1cc(OC)cc(C(=O)OCCCN2CCN(CCCOC(=O)c3ccc(OC)c(OC)c3)CC2)c1 [Compound 6v, 3-(4-(3-((3,5-dimethoxybenzoyl)oxy)propyl)piperazin-1-yl)propyl 3,4-dimethoxybenzoate] | around 30% and 34 (42, 26) %

Same assay, conditions: compared to ST7092

Molecule | decrease in affinity compared to ST7092
COc1ccc(C(=O)OCCCN2CCN(CCCOC(=O)c3cc(OC)c(OC)c(OC)c3)CC2)cc1OC [Compound 6n, 3-(4-(3-((3,4-dimethoxybenzoyl)oxy)propyl)piperazin-1-yl)propyl 3,4,5-trimethoxybenzoate] | 80 fold
COc1cc(OC)cc(C(=O)OCCCN2CCN(CCCOC(=O)c3cc(OC)c(OC)c(OC)c3)CC2)c1 [Compound 6o, 3-(4-(3-((3,5-dimethoxybenzoyl)oxy)propyl)piperazin-1-yl)propyl 3,4,5-trimethoxybenzoate] | 80 fold

Same assay, conditions: erythrocyte membranes, 4 nM [3H]NBTI, 10 °C, 1 h

Molecule | pKi
COc1ccc(C(=O)OCCCN2CCN(CCCOC(=O)c3cc(OC)c(OC)c(OC)c3)CC2)cc1OC [Compound 6n, 3-(4-(3-((3,4-dimethoxybenzoyl)oxy)propyl)piperazin-1-yl)propyl 3,4,5-trimethoxybenzoate] | 6.87
COc1cc(OC)cc(C(=O)OCCCN2CCN(CCCOC(=O)c3cc(OC)c(OC)c(OC)c3)CC2)c1 [Compound 6o, 3-(4-(3-((3,5-dimethoxybenzoyl)oxy)propyl)piperazin-1-yl)propyl 3,4,5-trimethoxybenzoate] | 6.84
COc1cc(C(=O)OCCCN2CCN(CCCOC(=O)c3cc(OC)c(OC)c(OC)c3)CC2)cc(OC)c1OC [ST7092, reference compound] | 8.75

Reference: publication PMC12061832, “Exploring novel dilazep derivatives as hENT1 inhibitors and potentially covalent molecular tools” (Purinergic Signalling, 2024)
